According to patent US6201129A, “Tricyclic derivatives and their use as anti-cancer agents” (Univ. College Cardiff Consultants, priority 1997, dated 2001):

Tested on: HT1080scc2 (clone of human fibrosarcoma cell-line HT1080)
Test: Cell proliferation/cytotoxicity assay, methylene blue biomass staining
Assay type: cell-based
Settings: HT-1080, HT1080scc2 cells, 1×10^3 cells per well, compound added day 1, further 4 days at 37° C., methylene blue staining read at 620 nm
Experimental: Compounds of the general formula (I) have been tested against two specially developed cell lines which are clones of the human fibrosarcoma cell-line HT1080. One clone HT1080scc2, retains the transformed phenotype of the parental line, whilst the other, HT10801c, is a morphologically flat, non-tumourigenic, revertant.
Assays for cell proliferation/cytotoxity were carried out in tissue culture grade 96 well microtitre plates (Costar). Cells in log growth were added to the plates at a concentration of 1×10^3 cells per well on day 0 and serially diluted compounds were then added on day 1. Plates were then incubated at 37° C. in 5% CO2 in air for a further 4 days.
For quantitation of cell growth, the methylene blue biomass staining method was used, the test being read on a Multiscan plate reader at wavelength of 620 nm. The morphology of the cells was checked microscopically under phase-contrast immediately before the fixation and staining with methylene blue, and by ordinary light microscopy thereafter. IC50 values for active compounds were obtained using the computer programme, GS1 and dose-response slopes were also plotted.

SMILES | IC50
CCOC(=O)c1[nH]c2cc3c(C(=O)OCC)c(C)[nH]c3c(C)c2c1C [Example 1, Diethyl 1,5-dihydro-3,4,6-trimethylpyrrolo[2,3-f]indole-2,7-dicarboxylate] | 100 µM
CCOC(=O)c1[nH]c2cc3[nH]c(C)cc3c(C)c2c1C [Example 2, Ethyl 1,7-dihydro-3,4,6-trimethylpyrrolo[3,2-f]indole-2-carboxylate] | 3 µM
